Data from PubChem BioAssay AID248 (DTP/NCI, 2004).
Values joined by “and” are separate entries in the source; they are usually repeats but may differ in a detail not shown here. Identical values can stand only once. Toxic doses and inconclusive results are not listed.

Test system: L1210 leukemia ip in BDF1 mice, survival T/C
Experiment: NCI In Vivo Anticancer Drug Screen. Data for tumor model L1210 Leukemia (intraperitoneal) in B6D2F1 (BDF1) mice
Settings: endpoint: mean survival time, higher = longer survival
Method in brief: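 Transplantable tumor model; survival measured in treated vs vehicle control mice. Value = treated/control.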

[1] = dose: 200.0 mg/kg/injection, schedule: Q01DX Z (ip), vehicle: saline
[2] = dose: 100.0 mg/kg/injection, schedule: Q04DX003 (ip), vehicle: Klucel (hydroxypropylcellulose) (HPC)

In the case of `C=CCSc1ncnc2c1ncn2C1OC(CO)C(O)C1O` (stereo not given), the T/C (dose: 25.0 mg/kg/injection, schedule: Q01DX Z (ip), vehicle: saline) is reported as 109 % of control and 120 % of control, the T/C (dose: 30.0 mg/kg/injection, schedule: Q01DX Z (ip), vehicle: saline) is reported as 106 % of control and the T/C (dose: 45.0 mg/kg/injection, schedule: Q01DX Z (ip), vehicle: saline) is reported as 108 % of control. The T/C (dose: 78.0 mg/kg/injection, schedule: Q01DX001 (ip), vehicle: carboxymethylcellulose (CMC)) was 112 % of control, the T/C (dose: 99.0 mg/kg/injection, schedule: Q01DX Z (ip), vehicle: saline) was 162 % of control and the T/C (dose: 100.0 mg/kg/injection, schedule: Q01DX001 (ip), vehicle: carboxymethylcellulose (CMC)) was 115 % of control. For the same compound, the T/C (dose: 100.0 mg/kg/injection, schedule: Q01DX Z (ip), vehicle: saline) was 166 % of control, the T/C (dose: 118.0 mg/kg/injection, schedule: Q01DX001 (ip), vehicle: carboxymethylcellulose (CMC)) was 123 % of control and the T/C (dose: 151.0 mg/kg/injection, schedule: Q01DX Z (ip), vehicle: saline) was 170 % of control and 181 % of control. For the same compound, the T/C (dose: 200.0 mg/kg/injection, schedule: Q01DX009 (ip), vehicle: carboxymethylcellulose (CMC)) was 93 % of control, the T/C [1] was 150 % of control and the T/C (dose: 266.0 mg/kg/injection, schedule: Q01DX001 (ip), vehicle: carboxymethylcellulose (CMC)) was 150 % of control. The T/C (dose: 300.0 mg/kg/injection, schedule: Q01DX Z (ip), vehicle: saline) was 96 % of control and the T/C (dose: 338.0 mg/kg/injection, schedule: Q01DX Z (ip), vehicle: saline) was 111 % of control.

In the case of `CC1(C)N=C(N)N=C(N)N1c1cccc(OCc2cccc([N+](=O)[O-])c2)c1`, the T/C (dose: 5.0 mg/kg/injection, schedule: Q01DX001 (ip), vehicle: saline) is reported as 104 % of control, the T/C (dose: 10.0 mg/kg/injection, schedule: Q01DX001 (ip), vehicle: saline) is reported as 98 % of control and the T/C (dose: 20.0 mg/kg/injection, schedule: Q01DX001 (ip), vehicle: saline) is reported as 110 % of control. The T/C (dose: 40.0 mg/kg/injection, schedule: Q01DX001 (ip), vehicle: saline) was 89 % of control and the T/C (dose: 100.0 mg/kg/injection, schedule: Q01DX001 (ip), vehicle: saline) was 96 % of control.

In the case of `CCCCCCCC(=O)N(CCC(=O)O)C(=O)O`, the T/C (dose: 100.0 mg/kg/injection, schedule: Q01DX001 (ip), vehicle: saline with Tween-80) is reported as 88 % of control, the T/C (dose: 200.0 mg/kg/injection, schedule: Q01DX001 (ip), vehicle: saline with Tween-80) is reported as 96 % of control and the T/C (dose: 400.0 mg/kg/injection, schedule: Q01DX001 (ip), vehicle: saline with Tween-80) is reported as 107 % of control.

For `C[CH2][Sn](/[CH]=C/C=C/OC)([CH2]C)[CH2]C`, the T/C (dose: 0.19 mg/kg/injection, schedule: Q01DX009 (ip), vehicle: saline) was 99 % of control, the T/C (dose: 0.39 mg/kg/injection, schedule: Q01DX009 (ip), vehicle: saline) was 94 % of control and the T/C (dose: 0.78 mg/kg/injection, schedule: Q01DX009 (ip), vehicle: saline) was 99 % of control. For the same compound, the T/C (dose: 6.25 mg/kg/injection, schedule: Q01DX009 (ip), vehicle: saline) was 94 % of control and the T/C (dose: 12.5 mg/kg/injection, schedule: Q01DX009 (ip), vehicle: saline) was 97 % of control.

In the case of `Cc1ccc(CCCCCCCCCCCC(=O)O)cc1`, the T/C (dose: 50.0 mg/kg/injection, schedule: Q01DX009 (ip), vehicle: saline with Tween-80) is reported as 93 % of control, the T/C (dose: 100.0 mg/kg/injection, schedule: Q01DX009 (ip), vehicle: saline with Tween-80) is reported as 97 % of control and the T/C (dose: 200.0 mg/kg/injection, schedule: Q01DX009 (ip), vehicle: saline with Tween-80) is reported as 93 % of control.

`O=C(O)/C=C\C(=O)Nc1ccc(O)cc1` was tested, and the T/C [2] was 102 % of control, the T/C [1] was 120 % of control and the T/C (dose: 200.0 mg/kg/injection, schedule: Q04DX003 (ip), vehicle: Klucel (hydroxypropylcellulose) (HPC)) was 110 % of control. The T/C (dose: 400.0 mg/kg/injection, schedule: Q04DX003 (ip), vehicle: Klucel (hydroxypropylcellulose) (HPC)) was 110 % of control and the T/C (dose: 675.0 mg/kg/injection, schedule: Q01DX Z (ip), vehicle: saline) was 100 % of control.

`NNC(=O)c1ccc(O)cc1` was tested, and the T/C (dose: 100.0 mg/kg/injection, schedule: Q04DX003 (ip), vehicle: saline with Tween-80) was 95 % of control, the T/C (dose: 200.0 mg/kg/injection, schedule: Q04DX003 (ip), vehicle: saline with Tween-80) was 101 % of control and the T/C (dose: 400.0 mg/kg/injection, schedule: Q04DX003 (ip), vehicle: saline with Tween-80) was 97 % of control.

For `CN(C)/N=[N+](\[O-])c1ccccc1`, the T/C (dose: 6.25 mg/kg/injection, schedule: Q01DX009 (ip), vehicle: Klucel (hydroxypropylcellulose) (HPC)) was 103 % of control, the T/C (dose: 12.5 mg/kg/injection, schedule: Q01DX009 (ip), vehicle: Klucel (hydroxypropylcellulose) (HPC)) was 100 % of control and 105 % of control and the T/C (dose: 25.0 mg/kg/injection, schedule: Q01DX009 (ip), vehicle: Klucel (hydroxypropylcellulose) (HPC)) was 97 % of control and 104 % of control. The T/C (dose: 25.0 mg/kg/injection, schedule: Q04DX003 (ip), vehicle: Klucel (hydroxypropylcellulose) (HPC)) was 96 % of control, the T/C (dose: 50.0 mg/kg/injection, schedule: Q01DX009 (ip), vehicle: Klucel (hydroxypropylcellulose) (HPC)) was 100 % of control and 105 % of control and the T/C (dose: 50.0 mg/kg/injection, schedule: Q04DX003 (ip), vehicle: Klucel (hydroxypropylcellulose) (HPC)) was 95 % of control and 108 % of control. The T/C [2] was 95 % of control and 105 % of control.
